The text below walks through data of patent US9096593B2, “Compounds and methods for kinase modulation, and indications therefor” (Plexxikon Inc., priority 2009, dated 2015).

The target of one data set is CYP3A4(BFC) (Homo sapiens (Human), UniProt P08684). The experiment in a line: CYP enzyme inhibition, fluorescent substrate. Here is the method: (§1) CYP (Cytochrome P450) enzymes are the major drug metabolizing enzymes present in the liver. The inhibition of CYP enzyme activity (IC50) for each of CYP1A2, CYP2C19, CYP2C9, CYP2D6, CYP3A4(BFC) and CYP3A4(BQ) is determined for compounds, where inhibition of metabolism of a known substrate leads to a decrease in the fluorescence of the metabolized product. The fluorescence of the product is monitored as a function of compound concentration.
(§2) Compounds are dissolved in DMSO to a concentration of 100 mM. These are diluted 1 μL into 82 μL of acetonitrile. An 11 μL aliquot of this solution is then added to 204 μL of cofactor mix (1.3% NADPH Regeneration system Solution A, 1.04% NADPH Regeneration system Solution B from BD Biosciences, 5% acetonitrile and 0.05% DMSO). These are then serially diluted 1:1 (160 μL to 160 μL co-factor mix) for a total of 10 points. A 10 μL aliquot of this final mixture is dispensed into 384 well assay plates and incubated for 10 minutes at 37° C. Enzyme and substrate mix (10 μL; […] CYP1A2/5 μM CEC; 1.0 μmol CYP2C9/75 μM MFC; […] CYP2C19/25 μM CEC; 1.5 μmol CYP2D6/1.5 μM AMMC; 1.0 μmol CYP3A4/50 μM BFC; or 1.0 μmol CYP3A4/40 μM BQ) is added to these assay plates. Assay plates are incubated at 37° C. (CYP1A2-15 min; CYP2C9-45 min; CYP2C19, 2D6 and 3A4-30 min) and read in a Tecan Safire 2 plate reader (CYP1A2, 2C19 and 3A4 409 ex/460 em; CYP2C9 and 2D6409 ex/530 em). The signal versus compound concentration is used to determine the IC50. The enzymes and substrates for this assay are obtained from BD Biosciences.

The next data set deals with CYP2D6 (Homo sapiens (Human), UniProt P10635). Nature of the data set: CYP enzyme inhibition, fluorescent substrate. Conditions: read-out: Cyp IC50 (μM) 2D6. Here is the method:
as §1, §2

In the next data set the target is CYP1A2 (Homo sapiens (Human), UniProt P05177). The experiment in a line: CYP enzyme inhibition, fluorescent substrate. Particulars: human, 15 min. Here is the method:
as §1, §2

The target in a further data set is CYP2C9 (Homo sapiens (Human), UniProt P11712). The experiment in a line: CYP enzyme inhibition, fluorescent substrate. The protocol: as §1, §2
The next data set concerns the target CYP3A4(BQ) (Homo sapiens (Human), UniProt P08684). Nature of the data set: CYP enzyme inhibition, fluorescent substrate. Particulars: read-out: Cyp IC50 (μM) 3A4(BQ); BQ substrate. The protocol: as §1, §2
Another data set has as its target CYP2C19 (Homo sapiens (Human), UniProt P33261). The experiment in a line: CYP enzyme inhibition, fluorescent substrate. The protocol:
as §1, §2

Data set [1] can be described thus: Turbidity assay of relative solubility in aqueous buffers. The format is physicochemical. Conditions: for turbidity threshold (L, M, H) 1.4: pH 1.4 as headed (method: SGF pH 1.5); for turbidity threshold (L, M, H) 4.5: pH 4.5 (SIF); for turbidity threshold (L, M, H) 6.8: pH 6.8 (SIF); for turbidity threshold (L, M, H) 7.4: pH 7.4 (HEPES). The protocol: As an indication of relative solubility, the turbidity of compounds in aqueous solutions is assessed. To assess possible compound properties in different physiological compartments, such as stomach, intestine, and blood, a series of aqueous buffers with varying pH is used. Thus each compound is diluted into four different physiologically relevant buffers and solution turbidity is measured by spectrophotometry.
Compounds are dissolved at a concentration of 25 mM in dimethyl sulfoxide, then serially diluted 1:1 into a 96 well plate, diluting 10 times in pure dimethyl sulfoxide, with the final well of each row a dimethyl sulfoxide blank. In an assay plate, 99 μL of appropriate buffer is added to each well, and 1 μL of each sample dilution is added to the buffer, achieving a range of final total concentrations in aqueous solutions having different pH. The buffers used are Simulated Gastric Fluid (SGF-pH 1.5) 0.5M NaCl, pH 1.5; Simulated Intestinal fluid (SIF-pH 4.5 and pH 6.8) 0.05M NaH2PO4, pH 4.5 and 6.8; and Hepes Buffer (HEPES-pH 7.4) 10 mM HEPES, 150 mM NaCl, pH 7.4. Control compounds pyrene, estriol and propranolol HCl are also assessed. Plates are spun and then mixed for 1 minute, and the absorbance is read using a Tecan Safire II to read wavelengths in the visible range (490, 535, and 650 nm) at four locations per well, reflecting the degree of turbidity present. The average optical density for each wavelength in each well is graphed vs. compound concentration, and the concentration at which the curve crosses a threshold O.D. of 0.01 for each wavelength is reported as the endpoint turbidity assay result. The average of the three wavelengths is used to compare turbidity of compounds. Compounds are considered to have low solubility if the threshold concentration is <31.3 μM, moderate solubility if the threshold concentration is 31.3 μM to 250 μM, and high solubility if the threshold concentration is >250 μM.

For the next data set, the target named is Fms kinase (Homo sapiens (Human), UniProt P07333). Nature of the data set: Fms kinase biochemical activity assay (AlphaScreen, biotin-(E4Y)10 phosphorylation). The protocol:
In one assay the biochemical activity IC50 values are determined with respect to inhibition of Fms kinase activity, where inhibition of phosphorylation of a peptide substrate is measured as a function of compound concentration. Compounds to be tested, dissolved in DMSO (1 μL), are added to a white 384-well plate (Costar #3705). Working stocks of Fms kinase (Invitrogen #PV3249), biotin-(E4Y)10 substrate (Upstate Biotech, Cat#12-440), and ATP (Sigma, Cat#A-3377) are prepared in 25 mM Hepes pH 7.5, 0.5 mM MgCl2, 2 mM MnCl2, 2 mM DTT, 0.01% BSA, and 0.01% Tween-20. All components are added to the 384-well plate for a final concentration of 1 ng/well Fms, 30 nM biotin-(E4Y)10 (Upstate Biotechnology) and 100 μM ATP in a volume of 20 μL. Each sample is at 5% DMSO. The plate is then incubated for 20 minutes at 30° C. Just before use, working stocks of donor and acceptor beads from the AlphaScreen PY20 Detection Kit (PerkinElmer, Cat#676601M) are prepared in 25 mM Hepes pH 7.5, pH 7.4, 100 mM EDTA, 0.01% BSA. To stop the reaction, the plate is uncovered in the dark and 5 μL of Donor Beads solution (Streptavidin beads) is added to each well. The plate is incubated at room temperature for 20 minutes. Five microliters of Acceptor Beads solution (PY20 coated beads) are then added to each well. The final concentration of each bead is 10 μg/mL. The plates are incubated at room temperature for 60 minutes. Fluorescence signal is recorded on the Envision reader. […] The signal vs. compound concentration is used to determine the IC50.

A further data set has as its target c-Kit kinase (Homo sapiens (Human), UniProt P10721). The experiment in a line: c-Kit kinase biochemical activity assay (AlphaScreen, biotin-(E4Y)10 phosphorylation). Here is the method:
In one assay the biochemical activity IC50 values are determined with respect to inhibition of c-Kit kinase activity, where inhibition of phosphorylation of a peptide substrate is measured as a function of compound concentration. Compounds to be tested are dissolved in DMSO to a concentration of 20 mM. These are diluted 30 μL into 120 μL of DMSO (4 mM) and 1 μL is added to an assay plate. These are then serially diluted […] (50 μL to 100 μL DMSO) for a total of 8 points. Plates are prepared such that each kinase reaction is 20 μL in 1× kinase buffer (25 mM HEPES, pH 7.5, 2 mM MgCl2, 2 mM MnCl2, 0.01% Tween-20, 1 mM DTT, 0.01% BSA), 5% DMSO and 100 μM ATP. Substrate is 30 nM biotin-(E4Y)10 (Millipore). C-kit kinase (obtained from Millipore (#14-559) or is prepared as described in U.S. Patent Application Publication Number 2009/0076046, the disclosure of which is hereby incorporated by reference as it relates to this assay) is at 0.75 ng per sample. After incubation of the kinase reaction for 1 hour at room temperature, 5 μL of donor beads (Streptavidin coated beads (Perkin Elmer Life Science) final concentration 10 μg/mL) in stop buffer (25 mM Hepes pH 7.5, 100 mM EDTA, 0.01% BSA) is added, the sample is mixed and incubated for 20 minutes at room temperature before adding 5 μL of acceptor beads (PY20 coated beads (Perkin Elmer Life Science) final concentration 10 μg/mL) in stop buffer. The samples are incubated for 60 minutes at room temperature and the signal per well is read on Envision reader. […] The signal vs. compound concentration is used to determine the IC50.
In general terms: Bead proximity is the source of the signal in Alpha formats.

As usually defined, the pIC50 is the IC50 on a negative log10 scale, so that one unit is a factor of ten. For orientation: IC50 means the midpoint of a concentration-inhibition curve.

pIC50: −log10 of the molar value. Read-outs that look alike come from different tables or passages of the source. Bounds are passed on as bounds.

Sequence of CYP2C9 (P11712 whole entry): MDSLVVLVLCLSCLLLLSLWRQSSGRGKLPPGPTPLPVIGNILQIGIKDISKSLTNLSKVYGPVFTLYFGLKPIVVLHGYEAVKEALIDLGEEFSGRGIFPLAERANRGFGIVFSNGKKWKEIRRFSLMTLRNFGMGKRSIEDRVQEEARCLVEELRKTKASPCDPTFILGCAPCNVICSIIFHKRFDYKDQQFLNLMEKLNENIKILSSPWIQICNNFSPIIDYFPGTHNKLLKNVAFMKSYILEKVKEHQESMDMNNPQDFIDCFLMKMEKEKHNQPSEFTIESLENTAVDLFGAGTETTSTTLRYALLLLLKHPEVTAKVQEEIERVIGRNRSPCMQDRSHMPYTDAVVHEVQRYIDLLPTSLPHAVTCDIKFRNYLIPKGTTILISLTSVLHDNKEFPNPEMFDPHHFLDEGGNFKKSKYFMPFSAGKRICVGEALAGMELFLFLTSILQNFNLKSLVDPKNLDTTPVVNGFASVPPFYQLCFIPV
Sequence of Fms kinase (P07333 20-972): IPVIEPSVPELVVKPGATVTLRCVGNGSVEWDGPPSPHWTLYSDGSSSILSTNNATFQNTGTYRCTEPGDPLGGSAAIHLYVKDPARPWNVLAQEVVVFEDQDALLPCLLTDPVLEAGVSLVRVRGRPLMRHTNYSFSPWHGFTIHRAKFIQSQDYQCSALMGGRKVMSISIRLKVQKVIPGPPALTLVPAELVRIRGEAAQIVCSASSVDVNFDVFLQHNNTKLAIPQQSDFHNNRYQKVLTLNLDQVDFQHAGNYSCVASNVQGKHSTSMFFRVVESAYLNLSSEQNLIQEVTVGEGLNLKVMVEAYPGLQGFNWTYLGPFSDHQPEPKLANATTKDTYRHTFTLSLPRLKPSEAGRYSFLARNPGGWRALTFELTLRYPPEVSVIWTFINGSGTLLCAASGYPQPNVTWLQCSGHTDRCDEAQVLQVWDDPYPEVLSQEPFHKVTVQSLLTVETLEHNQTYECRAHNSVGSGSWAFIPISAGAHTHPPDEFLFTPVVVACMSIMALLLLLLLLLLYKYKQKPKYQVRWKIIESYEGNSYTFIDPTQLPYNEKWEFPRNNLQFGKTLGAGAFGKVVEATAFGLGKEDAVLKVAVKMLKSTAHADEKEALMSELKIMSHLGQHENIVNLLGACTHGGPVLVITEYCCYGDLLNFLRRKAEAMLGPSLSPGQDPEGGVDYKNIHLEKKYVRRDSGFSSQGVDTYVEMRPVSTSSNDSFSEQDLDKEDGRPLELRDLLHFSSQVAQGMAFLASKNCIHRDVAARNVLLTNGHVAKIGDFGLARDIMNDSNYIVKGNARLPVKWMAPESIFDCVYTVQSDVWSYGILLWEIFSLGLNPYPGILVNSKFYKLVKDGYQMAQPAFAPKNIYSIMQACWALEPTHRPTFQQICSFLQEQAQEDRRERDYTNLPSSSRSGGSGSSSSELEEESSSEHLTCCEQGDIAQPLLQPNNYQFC
Sequence of CYP3A4(BFC) (P08684 whole entry): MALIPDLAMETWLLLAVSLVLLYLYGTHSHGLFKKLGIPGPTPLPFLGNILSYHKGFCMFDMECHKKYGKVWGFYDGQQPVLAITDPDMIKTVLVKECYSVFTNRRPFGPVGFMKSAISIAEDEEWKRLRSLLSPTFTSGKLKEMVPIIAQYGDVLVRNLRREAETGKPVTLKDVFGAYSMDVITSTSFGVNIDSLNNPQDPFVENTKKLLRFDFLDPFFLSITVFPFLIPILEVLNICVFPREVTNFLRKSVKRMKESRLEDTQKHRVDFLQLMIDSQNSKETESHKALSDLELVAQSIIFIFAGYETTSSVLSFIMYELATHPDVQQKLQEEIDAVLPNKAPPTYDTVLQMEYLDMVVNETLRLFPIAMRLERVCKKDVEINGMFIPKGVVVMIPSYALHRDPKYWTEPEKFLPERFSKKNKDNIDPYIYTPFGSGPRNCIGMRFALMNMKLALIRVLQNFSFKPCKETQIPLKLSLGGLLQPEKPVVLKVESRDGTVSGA
Sequence of CYP3A4(BQ) (P08684 whole entry): as above
Sequence of CYP2C19 (P33261 whole entry): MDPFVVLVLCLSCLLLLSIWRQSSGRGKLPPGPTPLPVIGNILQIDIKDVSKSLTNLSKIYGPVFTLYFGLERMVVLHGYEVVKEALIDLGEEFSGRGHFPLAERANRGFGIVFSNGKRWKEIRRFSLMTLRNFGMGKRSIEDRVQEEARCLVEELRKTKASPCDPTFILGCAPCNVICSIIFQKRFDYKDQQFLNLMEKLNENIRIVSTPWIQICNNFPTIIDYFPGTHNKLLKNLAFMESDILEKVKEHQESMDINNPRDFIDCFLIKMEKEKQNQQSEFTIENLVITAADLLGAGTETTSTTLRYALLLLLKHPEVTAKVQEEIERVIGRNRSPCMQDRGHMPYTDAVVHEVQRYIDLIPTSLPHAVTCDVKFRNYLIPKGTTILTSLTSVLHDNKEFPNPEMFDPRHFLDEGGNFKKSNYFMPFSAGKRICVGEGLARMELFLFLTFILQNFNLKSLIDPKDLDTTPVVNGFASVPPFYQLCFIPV
Sequence of CYP1A2 (P05177 whole entry): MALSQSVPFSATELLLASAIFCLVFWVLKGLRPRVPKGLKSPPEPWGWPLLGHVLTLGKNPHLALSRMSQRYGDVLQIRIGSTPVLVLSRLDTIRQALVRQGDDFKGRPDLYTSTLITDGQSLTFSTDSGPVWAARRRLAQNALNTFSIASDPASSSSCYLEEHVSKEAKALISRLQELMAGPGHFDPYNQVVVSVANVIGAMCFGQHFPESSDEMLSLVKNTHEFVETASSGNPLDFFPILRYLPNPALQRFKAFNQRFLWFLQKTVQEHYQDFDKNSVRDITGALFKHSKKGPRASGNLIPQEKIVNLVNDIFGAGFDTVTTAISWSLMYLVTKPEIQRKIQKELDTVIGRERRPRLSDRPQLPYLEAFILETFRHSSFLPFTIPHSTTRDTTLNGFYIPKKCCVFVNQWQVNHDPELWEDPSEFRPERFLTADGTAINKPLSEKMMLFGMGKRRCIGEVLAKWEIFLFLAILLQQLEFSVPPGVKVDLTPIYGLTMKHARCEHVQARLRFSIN
Sequence of c-Kit kinase (P10721 26-976): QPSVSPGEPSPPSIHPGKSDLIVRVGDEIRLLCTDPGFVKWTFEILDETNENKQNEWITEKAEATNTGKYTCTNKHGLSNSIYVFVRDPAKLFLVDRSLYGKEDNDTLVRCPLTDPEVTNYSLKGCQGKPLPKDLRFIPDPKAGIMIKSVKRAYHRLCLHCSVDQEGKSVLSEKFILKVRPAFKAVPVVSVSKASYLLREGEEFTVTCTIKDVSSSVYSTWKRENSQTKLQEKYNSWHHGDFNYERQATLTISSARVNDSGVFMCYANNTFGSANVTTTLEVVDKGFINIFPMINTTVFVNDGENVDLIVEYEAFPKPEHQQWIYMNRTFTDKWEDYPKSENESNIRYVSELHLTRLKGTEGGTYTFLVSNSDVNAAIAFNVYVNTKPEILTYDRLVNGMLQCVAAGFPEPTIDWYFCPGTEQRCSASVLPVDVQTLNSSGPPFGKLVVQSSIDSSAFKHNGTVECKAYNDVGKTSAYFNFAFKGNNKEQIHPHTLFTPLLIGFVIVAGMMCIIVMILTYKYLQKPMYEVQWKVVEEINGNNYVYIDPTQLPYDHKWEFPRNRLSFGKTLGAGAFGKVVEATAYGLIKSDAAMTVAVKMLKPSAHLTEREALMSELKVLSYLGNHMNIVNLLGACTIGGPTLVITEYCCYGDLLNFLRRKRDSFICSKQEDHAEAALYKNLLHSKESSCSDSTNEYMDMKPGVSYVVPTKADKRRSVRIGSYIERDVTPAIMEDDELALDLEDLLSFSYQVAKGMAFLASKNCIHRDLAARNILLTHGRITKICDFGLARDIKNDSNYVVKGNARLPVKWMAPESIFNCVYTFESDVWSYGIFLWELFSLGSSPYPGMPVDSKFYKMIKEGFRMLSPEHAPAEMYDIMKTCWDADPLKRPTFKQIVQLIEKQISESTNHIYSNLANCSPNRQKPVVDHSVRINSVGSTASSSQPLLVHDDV
Sequence of CYP2D6 (P10635 whole entry): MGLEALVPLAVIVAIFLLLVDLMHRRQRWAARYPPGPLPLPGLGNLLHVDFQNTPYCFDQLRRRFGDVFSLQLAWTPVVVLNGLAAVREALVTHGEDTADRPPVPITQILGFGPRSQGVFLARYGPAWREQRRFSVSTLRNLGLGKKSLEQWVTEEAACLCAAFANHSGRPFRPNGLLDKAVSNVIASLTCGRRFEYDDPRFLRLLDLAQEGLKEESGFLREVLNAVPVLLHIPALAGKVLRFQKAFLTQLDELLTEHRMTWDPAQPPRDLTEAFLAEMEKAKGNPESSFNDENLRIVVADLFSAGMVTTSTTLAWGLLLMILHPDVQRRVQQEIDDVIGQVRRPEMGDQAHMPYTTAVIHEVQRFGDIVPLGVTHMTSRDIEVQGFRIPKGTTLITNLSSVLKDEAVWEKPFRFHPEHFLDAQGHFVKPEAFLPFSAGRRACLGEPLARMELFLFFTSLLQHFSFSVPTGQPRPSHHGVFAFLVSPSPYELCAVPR

For the compound `COc1ncc(F)cc1CNc1ccc(Cc2c[nH]c3ncc(C)cc23)c(F)n1` [Compound P-2049, (5-Fluoro-2-methoxy-pyridin-3-ylmethyl)-[6-fluoro-5-(5-methyl-1H-pyrrolo[2,3-b]pyridin-3-ylmethyl)-pyridin-2-yl]-amine], the pIC50 on CYP3A4(BFC) was 5.00 to 5.30; on CYP1A2 it was less than 5.00; at CYP2C9 it was 5.00 to 5.30; against CYP2C19, 5.00 to 5.30. Also, the IC50 on CYP2D6 and on CYP3A4(BQ) was more than 10 µM throughout. Moreover, the “turbidity threshold (L, M, H) 1.4” value in data set [1] is given as “M (moderate solubility if the threshold concentration is 31.3 μM to 250 μM)”. Also, the “turbidity threshold (L, M, H) 4.5” value in data set [1] is “L (low solubility if the threshold concentration is <31.3 μM)”. For the same compound, the “turbidity threshold (L, M, H) 6.8” value in data set [1] is “L (low solubility if the threshold concentration is <31.3 μM)”. Also, the “turbidity threshold (L, M, H) 7.4” value in data set [1] was “L (low solubility if the threshold concentration is <31.3 μM)”.

Turning to `Cc1cnc2[nH]cc(Cc3ccc(NCc4ccnc(C)c4)nc3F)c2c1` [Compound P-2067, [6-Fluoro-5-(5-methyl-1H-pyrrolo[2,3-b]pyridin-3-ylmethyl)-pyridin-2-yl]-(2-methyl-pyridin-4-ylmethyl)-amine], the “Biochemical activity selectivity (Kit IC50/Fms IC50)” value on Fms kinase (Kit IC50/Fms IC50, biochemical) was more than 20. For the same compound, the IC50 at Fms kinase (read-out: Biochemical activity (IC50 μM) Fms) was less than 0.1 µM; on CYP3A4(BFC) (read-out: Cyp IC50 (μM) 3A4(BFC), BFC substrate), less than 5 µM; on CYP2C9 (read-out: Cyp IC50 (μM) 2C9), less than 5 µM; at CYP3A4(BQ), more than 10 µM; at CYP2C19 (read-out: Cyp IC50 (μM) 2C19), less than 5 µM; against c-Kit kinase, more than 0.1 µM. Besides, the negative logarithm of the IC50 (pIC50) against CYP1A2 was less than 5.00. The “turbidity threshold (L, M, H) 1.4” value in data set [1] is “H (high solubility if the threshold concentration is >250 μM)”. The “turbidity threshold (L, M, H) 4.5” value in data set [1] is “H (high solubility if the threshold concentration is >250 μM)”. Moreover, the “turbidity threshold (L, M, H) 6.8” value in data set [1] was “H (high solubility if the threshold concentration is >250 μM)”. The “turbidity threshold (L, M, H) 7.4” value in [1] is listed as “H (high solubility if the threshold concentration is >250 μM)”.
